Data published in ChEMBL document CHEMBL1201862, “PubChem BioAssay data set” (2004).
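48-hour exposure; five concentrations; linearly interpolated endpoints. Abbreviation: GI50, concentration required for 50% inhibition of growth.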 Calls of active or inactive are those of the source. Cut-off read from the data, not from the text of the source: active = GI50 up to about 1.1 µM and inactive = higher.

How the values were obtained:
Test in all cases: NCI-60 cell line screen, 48 h
786-0 = tested on: 786-0
MDA-MB-435 = tested on: MDA-MB-435
MCF7 = tested on: MCF7
HOP-92 = tested on: HOP-92
Hs-578T = tested on: Hs-578T
TK-10 = tested on: TK-10
LOX IMVI = tested on: LOX IMVI
MDA-N = tested on: MDA-N
MDA-MB-231 = tested on: MDA-MB-231
A498 = tested on: A498
SN12C = tested on: SN12C
K562 = tested on: K562
PC-3 = tested on: PC-3
SNB-75 = tested on: SNB-75
ACHN = tested on: ACHN
HCC 2998 = tested on: HCC 2998
HOP-18 = tested on: HOP-18
XF498 = tested on: XF498
DMS-273 = tested on: DMS-273
DMS-114 = tested on: DMS-114

O=C(CSc1nc2ccccc2c2ccccc12)c1ccccc1
GI50 (786-0): > 100 µM (inactive)
GI50 (MDA-MB-435): > 100 µM (inactive)
GI50 (MCF7): > 100 µM (inactive)
GI50 (HOP-92): > 100 µM (inactive)
GI50 (Hs-578T): 0.0226 µM (active)
GI50 (TK-10): > 100 µM (inactive)
GI50 (LOX IMVI): > 100 µM (inactive)
GI50 (MDA-N): > 100 µM (inactive)
GI50 (MDA-MB-231): > 100 µM (inactive)
GI50 (A498): > 100 µM (inactive)
GI50 (SN12C): > 100 µM (inactive)
GI50 (K562): > 100 µM (inactive)
GI50 (PC-3): > 100 µM (inactive)
GI50 (SNB-75): 13.8 µM (inactive)
GI50 (ACHN): > 100 µM (inactive)

CC(=O)Nc1cc2c(cc1O)CC[C@@H]1[C@@H]2CC[C@]2(C)[C@@H](O)CC[C@@H]12
GI50 (786-0): 63 µM (inactive)
GI50 (MDA-MB-435): 19.7 µM (inactive)
GI50 (MCF7): 28.6 µM (inactive)
GI50 (HOP-92): 41 µM (inactive)
GI50 (Hs-578T): 74.1 µM (inactive)
GI50 (TK-10): 49.7 µM (inactive)
GI50 (LOX IMVI): 34.6 µM (inactive)
GI50 (MDA-N): 18.1 µM (inactive)
GI50 (MDA-MB-231): 55 µM (inactive)
GI50 (A498): 24.1 µM (inactive)
GI50 (K562): 23.5 µM (inactive)
GI50 (HCC 2998): 37.2 µM (inactive)
GI50 (PC-3): 35.5 µM (inactive)
GI50 (ACHN): 41.6 µM (inactive)

C=CCN1C(N)=C(C(N)=O)S/C1=C1/SC(=S)N(c2ccc(C)cc2)C1=O
GI50 (HOP-18): 61.9 µM (inactive)
GI50 (HOP-92): > 100 µM (inactive)
GI50 (TK-10): > 100 µM (inactive)
GI50 (A498): 3.65 µM (inactive)
GI50 (K562): > 100 µM (inactive)
GI50 (SNB-75): 12.6 µM (inactive)
GI50 (ACHN): > 100 µM (inactive)

O=C1C[C@H](Sc2ccccc2)C2(OCCO2)[C@H]2ON3CCC[C@@H]3[C@@H]12
GI50 (786-0): 1.21 µM (inactive)
GI50 (MDA-MB-435): 1.67 µM (inactive)
GI50 (MCF7): 1.12 µM (inactive)
GI50 (HOP-92): 1.24 µM (inactive)
GI50 (Hs-578T): 3.73 µM (inactive)
GI50 (TK-10): 3.61 µM (inactive)
GI50 (LOX IMVI): 1.09 µM (active)
GI50 (MDA-N): 3.05 µM (inactive)
GI50 (MDA-MB-231): 3.33 µM (inactive)
GI50 (A498): 13.2 µM (inactive)
GI50 (SN12C): 1.69 µM (inactive)
GI50 (K562): 1.71 µM (inactive)
GI50 (HCC 2998): 2.57 µM (inactive)
GI50 (PC-3): 2.48 µM (inactive)
GI50 (SNB-75): 3.66 µM (inactive)
GI50 (ACHN): 2.1 µM (inactive)

CCCSc1ccc2[nH]c(N3C(=O)/C(=C/c4cc(OC)c(OC)c(OC)c4)N=C3c3ccccc3)cc2c1
GI50 (786-0): 3.24 µM (inactive)
GI50 (MDA-MB-435): 4.03 µM (inactive)
GI50 (MCF7): 12.6 µM (inactive)
GI50 (HOP-92): 13.9 µM (inactive)
GI50 (Hs-578T): 0.67 µM (active)
GI50 (TK-10): 17 µM (inactive)
GI50 (LOX IMVI): 12.2 µM (inactive)
GI50 (MDA-N): 4.88 µM (inactive)
GI50 (MDA-MB-231): > 37.5 µM (inactive)
GI50 (A498): 0.871 µM (active)
GI50 (SN12C): 16.4 µM (inactive)
GI50 (K562): 8.43 µM (inactive)
GI50 (HCC 2998): 13.2 µM (inactive)
GI50 (PC-3): 16.1 µM (inactive)
GI50 (SNB-75): 10.8 µM (inactive)
GI50 (ACHN): 23 µM (inactive)

N#CC(NC12CC3CC(CC(C3)C1)C2)c1ccccc1C(F)(F)F (stereo unspecified)
GI50 (HOP-18): > 100 µM (inactive)
GI50 (XF498): > 100 µM (inactive)
GI50 (DMS-273): > 100 µM (inactive)
GI50 (TK-10): > 100 µM (inactive)
GI50 (LOX IMVI): > 100 µM (inactive)
GI50 (DMS-114): > 100 µM (inactive)
GI50 (SN12C): > 100 µM (inactive)
GI50 (K562): > 100 µM (inactive)
GI50 (HCC 2998): > 100 µM (inactive)
GI50 (ACHN): > 100 µM (inactive)

COc1ccc(CNc2nc3cc(C(F)(F)F)ccc3nc2C)cc1OC
GI50 (786-0): 22 µM (inactive)
GI50 (XF498): 35.3 µM (inactive)
GI50 (DMS-273): 20 µM (inactive)
GI50 (TK-10): 24.3 µM (inactive)
GI50 (LOX IMVI): 24.9 µM (inactive)
GI50 (A498): 24.3 µM (inactive)
GI50 (SN12C): 30.5 µM (inactive)
GI50 (K562): 29.1 µM (inactive)
GI50 (HCC 2998): 17.9 µM (inactive)
GI50 (SNB-75): 18.5 µM (inactive)

O=c1ccc2ccc(S)cc2o1
GI50 (786-0): > 100 µM (inactive)
GI50 (MDA-MB-435): > 100 µM (inactive)
GI50 (MCF7): > 100 µM (inactive)
GI50 (HOP-92): > 100 µM (inactive)
GI50 (Hs-578T): > 100 µM (inactive)
GI50 (TK-10): 92.5 µM (inactive)
GI50 (LOX IMVI): > 100 µM (inactive)
GI50 (MDA-N): > 100 µM (inactive)
GI50 (MDA-MB-231): > 100 µM (inactive)
GI50 (A498): > 100 µM (inactive)
GI50 (SN12C): > 100 µM (inactive)
GI50 (HCC 2998): > 100 µM (inactive)
GI50 (PC-3): > 100 µM (inactive)
GI50 (SNB-75): > 100 µM (inactive)
GI50 (ACHN): > 100 µM (inactive)

Cn1cc(C(=O)/C(Cl)=C(\Cl)C(=O)O)c2ccccc21
GI50 (786-0): > 100 µM (inactive)
GI50 (XF498): > 100 µM (inactive)
GI50 (DMS-273): > 100 µM (inactive)
GI50 (TK-10): > 100 µM (inactive)
GI50 (DMS-114): > 100 µM (inactive)
GI50 (A498): > 100 µM (inactive)
GI50 (K562): > 100 µM (inactive)
GI50 (HCC 2998): > 100 µM (inactive)
GI50 (SNB-75): > 100 µM (inactive)
GI50 (ACHN): > 100 µM (inactive)

O=C(c1ccc(Cl)cc1)N1CCN=C1c1cc2ccccc2c2ccccc12
GI50 (786-0): 16.7 µM (inactive)
GI50 (MDA-MB-435): 15.7 µM (inactive)
GI50 (MCF7): 17.7 µM (inactive)
GI50 (HOP-92): 11.6 µM (inactive)
GI50 (Hs-578T): 17.5 µM (inactive)
GI50 (TK-10): 15.2 µM (inactive)
GI50 (LOX IMVI): 17.8 µM (inactive)
GI50 (MDA-N): 16.4 µM (inactive)
GI50 (MDA-MB-231): 16.2 µM (inactive)
GI50 (A498): 15.4 µM (inactive)
GI50 (SN12C): 16.9 µM (inactive)
GI50 (K562): 27.7 µM (inactive)
GI50 (PC-3): 17.1 µM (inactive)
GI50 (SNB-75): 12.4 µM (inactive)
GI50 (ACHN): 17.4 µM (inactive)

CC(C)OP(=O)(OC(C)C)/C(=N/Nc1ccc([N+](=O)[O-])cc1)NCCO
GI50 (786-0): > 100 µM (inactive)
GI50 (XF498): > 100 µM (inactive)
GI50 (HOP-92): 64.1 µM (inactive)
GI50 (DMS-273): > 100 µM (inactive)
GI50 (TK-10): > 100 µM (inactive)
GI50 (LOX IMVI): 56.1 µM (inactive)
GI50 (DMS-114): 90.6 µM (inactive)
GI50 (A498): 3.15 µM (inactive)
GI50 (SN12C): > 100 µM (inactive)
GI50 (K562): 71.8 µM (inactive)
GI50 (HCC 2998): > 100 µM (inactive)
GI50 (SNB-75): > 100 µM (inactive)
GI50 (ACHN): 54.1 µM (inactive)
